In patent publication US20080004310A1, “LYOPHILIZED PHARMACEUTICAL COMPOSITION” (priority 2006, published 2008):
Where a name gives a salt, the structure may show the parent alone. Read-outs that look alike come from different tables or passages of the source.

Tests used:
[1] = system: patient with erectile dysfunction; experiment: Treatment of a patient having erectile dysfunction by injection of the reconstituted lyophilized composition; type: in vivo; conditions: for treatment effect on erectile dysfunction: general method of treatment of Example 3, single lyophilized agent only
From the text: In one embodiment, a lyophilized composition may be used to treat a patient having erectile dysfunction. The lyophilized composition is formed by first providing an erectile inducing amount of at least one lyophilized compound selected from papverine hydrochloride, phentolamine mesylate, and alprostadil. The lyophilized composition is then reconstituted with a pharmaceutically acceptable solvent, such as sterilized water, to produce a reconstituted pharmaceutical solution. The reconstituted pharmaceutical solution is then administered to the patient. Once the lyophilized compounds are reconstituted, the reconstituted pharmaceutical solution may be administered to the patient by a variety of methods, including, but not limited to orally or by injection. In one embodiment, the composition is administered by injection. Any suitable method of injection, such as intracavernosal, intravenous, intraarterial, intramuscular, intraperitoneal, intraportal, intradermal or subcutaneous may be used.
A person, 75 kilogram (kg) […] patient is diagnosed with having erectile dysfunction. The patient is instructed to inject the lypholized preparation of 30 mg/ml papaverine, 1.0 mg/ml phentolamine mesylate, and 10 μg/ml alprostadil on a daily basis, if this is the intended frequency of sexual activity. The lyophilized papaverine, phentolamine, and alprostadil are prepared according to Example 1. The patient is examined after one month.
A 70 kg patient is apparently in good health. They present complaints of a loss of sexual desire and frequent erectile dysfunction. They report that although they are periodically interested in initiating sexual relations, on most occasions they are unable to maintain a high level of interest sufficiently long to initiate or to adequately respond to their spouse's initiating sexual activity. […] 1.0 mg/ml of lyophilized phentolamine is given to […]. The reconstituted phentolamine is injected about 0.5 hours before the patient intended to engage in sexual activity. The patient is examined after one month. They report that they take the drug combination 2-3 times per week.
Following the general method of treatment described in Example 3, non-critical variations are made to the composition of Example 3 such that only 10 μg/ml of lyophilized alprostadil is used.
Following the general method of treatment described in Example 3, non-critical variations are made to the composition of Example 3 such that only 30 mg/ml of lyophilized papaverine hydrochloride is used.

[2] = Accelerated aging of lyophilized composition (assay of active components after reconstitution); type: physicochemical; conditions: accelerated conditions 40° C./75% RH
Protocol: Aliquots of the clear solution (3 ml) were filtered through a sterilizing 0.22 um filter into lyophilization vials (5 ml). The filled lyophilization vials were topped, but not sealed, with lyophilization stoppers and freeze-dried according the following procedure. The topped vials were placed into a commercial freeze-drier. The temperature of the drier was lowered to about −40° C. and maintained at that temperature for at least 6 hours. […] Following the three temperature increasing steps, the vials were sealed under vacuum, the freeze-drier was returned to normal atmospheric pressure, and the vials were removed from the freeze-drier. In accelerated aging conditions, the active components of the lyophilized compositions of the present invention have an extended shelf live of as much as 120 days. The accelerated aging data for one, three, and four weeks is set out in Table 1. In Table 1, each week of accelerated aging corresponds to about one month of normal aging. [table]

[3] = general solubility, not lyophilized; cited from earlier work
[4] = physchem
[5] = Week One, each week about one month of normal aging

Compound	treatment effect on erectile dysfunction [1]	% of Expected ([2]; Week Four)	Assayed Conc. ([2]; Week Four)	% of Expected ([2]; Week One)	Assayed Conc. ([2]; Week One)	% of Expected ([2]; Week Three)	Assayed Conc. ([2]; Week Three)	maintenance of erection ([1]; 70 kg patient, 1.0 mg/ml, injected about 0.5 hours before sexual activity, 2-3 times per week, examined after one month)	sexual desire / motivation ([1]; 70 kg patient, 1.0 mg/ml, injected about 0.5 hours before sexual activity, examined after one month)	Assayed Conc. [2, 5]	solubility [3]	solubility [4]
CCCCC[C@H](O)/C=C/[C@H]1[C@H](O)CC(=O)[C@@H]1CCCCCCC(=O)O [Alprostadil, alprostadil]	same positive treatment effect	95%	0.0095 mg/mL	105%	0.0105 mg/mL	100%	0.01 mg/mL					
Cc1ccc(N(CC2=NCCN2)c2cccc(O)c2)cc1 [Phentolamine Mesylate, phentolamine mesylate]		100%	1.0 mg/mL	100%		92%	.92 mg/mL	no difficulty maintaining an erection to completion of sexual intercourse	feels motivated to initiate sexual activity	1.0 mg/mL		
COc1ccc(Cc2nccc3cc(OC)c(OC)cc23)cc1OC [Papaverine HCl, papaverine hydrochloride]	same positive treatment effect	78%	23.4 mg/mL	65.7%		67.7%	20.3 mg/mL			19.7 mg/mL	about 30 mg/ml	~90 mg/mL
